According to US8986994B2, “Substituted pyridines and pyrimidines” (Technische Universitaet Wien, priority 2009, dated 2015):
Like-named read-outs stand apart in the source and are kept apart here.

How the values were obtained:
[1] = system: Na currents in C2C12 cells; assay type: cell-based, mouse; settings: 1 μM for 8 days
[2] = system: TOPflash (C2C12 cells); test: TOPflash luciferase reporter assay in C2C12 cells; assay type: cell-based; settings: Mus musculus, read-out: TOPflash activity
[3] = system: TOPflash (P19 cells); test: TOPflash luciferase reporter assay in P19 cells; assay type: cell-based; settings: Mus musculus, read-out: TOPflash activity
[4] = system: Nkx2.5 (C2C12 cells); test: Nkx2.5 luciferase reporter assay in C2C12 cells; assay type: cell-based; settings: Mus musculus, read-out: Nkx2.5 activity
[5] = system: Nkx2.5 (P19 cells); test: Nkx2.5 luciferase reporter assay in P19 cells; assay type: cell-based; settings: Mus musculus, read-out: Nkx2.5 activity
[6] = system: ANF (C2C12 cells); test: ANF promoter luciferase reporter assay in C2C12 cells; assay type: cell-based, mouse; settings: for fold induction at 1 µM: Mus musculus, read-out: ANF activity; for luciferase signal in all three reporter assays: ANF, TOPflash and Nkx2.5 reporter assays together
[7] = system: ANF (P19 cells); test: ANF promoter luciferase reporter assay in P19 cells; assay type: cell-based, mouse; settings: for fold induction at 1 µM: Mus musculus, read-out: ANF activity
[8] = system: Ca currents in C2C12 cells; test: Electrophysiological testing, whole cell patch clamp: Ca currents; assay type: cell-based, mouse
[9] = system: ANF (human primary skeletal myoblasts); test: ANF reporter assay in human primary skeletal myoblasts; assay type: cell-based; settings: 1 μM for 6 days, two experiments
[10] = 192 h, C2C12 cells, 1 μM for 8 days, luciferase signal vs control (untreated cells)
[11] = 192 h, P19 cells, 1 μM for 8 days, luciferase signal vs control (untreated cells)

Row | Structure (SMILES) | tetrodotoxin (TTX)-resistance of the Na currents [1] | fold induction at 1 µM [2, 10] | fold induction at 1 µM [3, 11] | fold induction at 1 µM [4, 10] | fold induction at 1 µM [5, 11] | fold induction at 1 µM [6, 10] | fold induction at 1 µM [7, 11] | activation kinetics of Ca currents [8] | melting point [°C] | fold induction at 1 µM ([2]; C2C12, 192 h) | fold induction at 1 µM ([3]; P19, 192 h) | fold induction at 1 µM ([4]; C2C12, 192 h) | fold induction at 1 µM ([5]; P19, 192 h) | luciferase signal in all three reporter assays ([6]; C2C12 cells, 1 μM for 8 days) | fold induction at 1 µM ([6]; C2C12, 192 h) | fold induction at 1 µM ([7]; P19, 192 h) | luciferase signal in all three reporter assays ([7]; P19 cells, 1 μM for 8 days, ANF, TOPflash and Nkx2.5 reporter assays together) | luciferase signal in the ANF reporter assay [9]
1 | COc1ccc(Nc2cc(NCCO)ncn2)cc1 [example 1, 2-(6-(4-Methoxyphenylamino)pyrimidine-4-ylamino)ethan-1-ol] | moderately increase | < 1.3 | < 1.3 | < 1.3 | < 1.3 | > 2 | 1.3 to 2 | significantly speeds |  |  |  |  |  |  |  |  |  | 
2 | COc1ccc(Nc2cc(NCCCO)ncn2)cc1 [example 2, 3-(6-(4-Methoxyphenylamino)pyrimidine-4-ylamino)propan-1-ol] | moderately increase | < 1.3 | > 2 | 1.3 to 2 | < 1.3 | < 1.3 | 1.3 to 2 |  | 151 to 152 |  |  |  |  |  |  |  |  | 
3 | OCCNc1cc(Nc2ccc(Oc3ccccc3)cc2)ncn1 [example 8, 2-(6-(4-Phenoxyphenylamino)pyrimidin-4-ylamino)ethan-1-ol] |  | < 1.3 | 1.3 to 2 | 1.3 to 2 | < 1.3 | < 1.3 | < 1.3 |  | 154 to 156 |  |  |  |  |  |  |  |  | 
4 | CCCNc1cc(Nc2ccc(OC)cc2)ncn1 [example 9, N^4-(4-Methoxyphenyl)-N^6-propylpyrimidine-4,6-diamine] |  | 1.3 to 2 | < 1.3 | 1.3 to 2 | > 2 | < 1.3 | < 1.3 |  | 194 to 196 |  |  |  |  |  |  |  |  | 
5 | CCNc1cc(Nc2ccc(OC)cc2)ncn1 [example 10, N^4-Ethyl-N^6-(4-methoxyphenyl)pyrimidine-4,6-diamine] |  |  |  |  |  |  |  |  | 190 to 193 | 1.3 to 2 | < 1.3 | 1.3 to 2 | < 1.3 | increase in the luciferase signal in all three reporter assays | 1.3 to 2 | 1.3 to 2 |  | 
6 | CNc1cc(Nc2ccc(OC)cc2)ncn1 [example 11, N^4-(4-Methoxyphenyl)-N^6-methylpyrimidine-4,6-diamine] |  | 1.3 to 2 | > 2 | 1.3 to 2 | < 1.3 | < 1.3 | < 1.3 |  | 174 to 182 |  |  |  |  |  |  |  |  | 
7 | COc1ccc(Nc2ccnc(NCCO)c2)cc1 [example 40, 2-(4-(4-Methoxyphenylamino)pyridin-2-ylamino)ethan-1-ol] |  | < 1.3 | < 1.3 | < 1.3 | < 1.3 | < 1.3 | < 1.3 |  | 164 to 165 |  |  |  |  |  |  |  |  | 
8 | COc1ccc(Nc2cccc(NCCO)n2)cc1 [example 42, 2-(6-(4-Methoxyphenylamino)pyridin-2-ylamino)ethan-1-ol] |  | 1.3 to 2 | > 2 | 1.3 to 2 | 1.3 to 2 | 1.3 to 2 | 1.3 to 2 |  |  |  |  |  |  | increase in the luciferase signal in all three reporter assays |  |  | increase in the luciferase signal in all three reporter assays | generated an increase in the luciferase signal
